From the supplement of paper PMC11482750
± gives the standard deviation of the averaged measurements.

Columns and labels:
Assay in all cases: control-subtracted net OSN firing rate; higher = stronger neuronal activation
S. montana pb1a-like = system: S. montana pb1a-like
Method: (§1)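 Dose-response single sensillum recordings from pb1a (D. melanogaster Canton-S) and pb1a-like (Scaptomyza) maxillary palp OSNs. Odorants were given at 10^-5 to 10^-2 vol/vol in mineral oil (γ-hexalactone in DMSO) as 1 s pulses. The read-out is the control-subtracted net spikes/s in a 0.5 s window.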

Canton-S pb1a = system: Canton-S pb1a
Method: as §1

S. pallida pb1a-like = system: S. pallida pb1a-like
Method: as §1

S. hsui pb1a-like = system: S. hsui pb1a-like
Method: as §1

S. flava pb1a-like = system: S. flava pb1a-like
Method: as §1

[1] = odorant dilution (vol/vol): 10^-2
[2] = odorant dilution (vol/vol): 10^-3
[3] = odorant dilution (vol/vol): 10^-4
[4] = odorant dilution (vol/vol): 10^-5

| SMILES | control-subtracted net OSN firing rate (S. montana pb1a-like; [1]) | control-subtracted net OSN firing rate (S. montana pb1a-like; [2]) | control-subtracted net OSN firing rate (S. montana pb1a-like; [3]) | control-subtracted net OSN firing rate (S. montana pb1a-like; [4]) | control-subtracted net OSN firing rate (Canton-S pb1a; [1]) | control-subtracted net OSN firing rate (Canton-S pb1a; [2]) | control-subtracted net OSN firing rate (Canton-S pb1a; [3]) | control-subtracted net OSN firing rate (Canton-S pb1a; [4]) | control-subtracted net OSN firing rate (S. pallida pb1a-like; [1]) | control-subtracted net OSN firing rate (S. pallida pb1a-like; [2]) | control-subtracted net OSN firing rate (S. pallida pb1a-like; [3]) | control-subtracted net OSN firing rate (S. pallida pb1a-like; [4]) | control-subtracted net OSN firing rate (S. hsui pb1a-like; [1]) | control-subtracted net OSN firing rate (S. hsui pb1a-like; [2]) | control-subtracted net OSN firing rate (S. hsui pb1a-like; [3]) | control-subtracted net OSN firing rate (S. hsui pb1a-like; [4]) | control-subtracted net OSN firing rate (S. flava pb1a-like; [1]) | control-subtracted net OSN firing rate (S. flava pb1a-like; [2]) | control-subtracted net OSN firing rate (S. flava pb1a-like; [3]) | control-subtracted net OSN firing rate (S. flava pb1a-like; [4]) |
| --- | --- | --- | --- | --- | --- | --- | --- | --- | --- | --- | --- | --- | --- | --- | --- | --- | --- | --- | --- | --- |
| C=CCN=C=S [allyl isothiocyanate] | 168 ± 26 spikes/s | 118 ± 33 spikes/s | 58.3 ± 35 spikes/s | 20 ± 9.4 spikes/s | 153 ± 42 spikes/s | 27 ± 7.3 spikes/s | 2 ± 5.9 spikes/s | -3.33 ± 5 spikes/s | 142 ± 25 spikes/s | 115 ± 44 spikes/s | 33.8 ± 19 spikes/s | 5.56 ± 14 spikes/s | 132 ± 49 spikes/s | 51.2 ± 27 spikes/s | 6.75 ± 6 spikes/s | -1 ± 12 spikes/s | 169 ± 40 spikes/s | 117 ± 38 spikes/s | 50 ± 28 spikes/s | 11.4 ± 14 spikes/s |
| CCC(C)N=C=S (centres undefined) [sec-butyl isothiocyanate] | 72.7 ± 9.3 spikes/s | 13.3 ± 9.4 spikes/s | -0.667 ± 7.1 spikes/s | 0.667 ± 4.8 spikes/s | – | – | – | – | – | – | – | – | – | – | – | – | 76.6 ± 22 spikes/s | 19.7 ± 11 spikes/s | 3.14 ± 6.4 spikes/s | -2.57 ± 5.9 spikes/s |
| CCC1CCC(=O)O1 (centres undefined) [γ-hexalactone] | 186 ± 42 spikes/s | 93.7 ± 28 spikes/s | 21.3 ± 13 spikes/s | -2 ± 9.8 spikes/s | 286 ± 56 spikes/s | 217 ± 84 spikes/s | 33 ± 18 spikes/s | 22.7 ± 15 spikes/s | 152 ± 15 spikes/s | 98.7 ± 50 spikes/s | 34.3 ± 35 spikes/s | 11.3 ± 15 spikes/s | 163 ± 14 spikes/s | 128 ± 14 spikes/s | 53 ± 17 spikes/s | 43.7 ± 11 spikes/s | 182 ± 37 spikes/s | 42.6 ± 26 spikes/s | 3.14 ± 9.9 spikes/s | -3.43 ± 8 spikes/s |
| CCC/C=C/C=O [trans-2-hexenal] | 187 ± 11 spikes/s | 156 ± 23 spikes/s | 72 ± 19 spikes/s | 26.7 ± 4.8 spikes/s | 121 ± 35 spikes/s | 34.7 ± 14 spikes/s | 5 ± 3.5 spikes/s | -3 ± 6.4 spikes/s | 145 ± 31 spikes/s | 119 ± 40 spikes/s | 26.4 ± 24 spikes/s | 5.78 ± 13 spikes/s | 130 ± 48 spikes/s | 55.7 ± 31 spikes/s | 9 ± 11 spikes/s | 2.67 ± 11 spikes/s | 169 ± 30 spikes/s | 159 ± 33 spikes/s | 136 ± 33 spikes/s | 58.6 ± 19 spikes/s |
| CC(C)CN=C=S [isobutyl isothiocyanate] | 164 ± 20 spikes/s | 84.7 ± 14 spikes/s | 17.3 ± 5.9 spikes/s | 2 ± 5.8 spikes/s | – | – | – | – | – | – | – | – | – | – | – | – | 179 ± 22 spikes/s | 93 ± 16 spikes/s | 23.3 ± 7.5 spikes/s | 5.67 ± 4.6 spikes/s |
| CCCCN=C=S [butyl isothiocyanate] | 124 ± 14 spikes/s | 42.3 ± 22 spikes/s | 10 ± 14 spikes/s | 0.667 ± 9.1 spikes/s | – | – | – | – | – | – | – | – | – | – | – | – | 146 ± 29 spikes/s | 65.7 ± 36 spikes/s | 21.7 ± 10 spikes/s | -4 ± 10 spikes/s |
| CCCC(=O)OCC [ethyl butyrate] | 236 ± 60 spikes/s | 150 ± 70 spikes/s | 42.5 ± 25 spikes/s | 7.5 ± 3.5 spikes/s | 211 ± 10 spikes/s | 209 ± 12 spikes/s | 76.3 ± 41 spikes/s | 12.9 ± 4.5 spikes/s | 142 ± 26 spikes/s | 135 ± 24 spikes/s | 111 ± 39 spikes/s | 20.2 ± 19 spikes/s | 150 ± 38 spikes/s | 118 ± 43 spikes/s | 46 ± 21 spikes/s | 11 ± 22 spikes/s | 208 ± 60 spikes/s | 170 ± 59 spikes/s | 52.8 ± 54 spikes/s | 2 ± 7.4 spikes/s |
